Each structure is given as a SMILES string. Active and inactive are the calls of the source. No cut-off for these calls is given here.

In ChEMBL document CHEMBL5338706, “Discovery of a potent and selective proteolysis targeting chimera (PROTAC) degrader of NSD3 histone methyltransferase” (Eur J Med Chem, 2022) one finds NSD3 degradation and Activity data, which are given here for 26 compounds.

The first assay has as its target T1, Histone-lysine N-methyltransferase NSD3 (Homo sapiens) (UniProt Q9BZ95).
T1 sequence (whole entry): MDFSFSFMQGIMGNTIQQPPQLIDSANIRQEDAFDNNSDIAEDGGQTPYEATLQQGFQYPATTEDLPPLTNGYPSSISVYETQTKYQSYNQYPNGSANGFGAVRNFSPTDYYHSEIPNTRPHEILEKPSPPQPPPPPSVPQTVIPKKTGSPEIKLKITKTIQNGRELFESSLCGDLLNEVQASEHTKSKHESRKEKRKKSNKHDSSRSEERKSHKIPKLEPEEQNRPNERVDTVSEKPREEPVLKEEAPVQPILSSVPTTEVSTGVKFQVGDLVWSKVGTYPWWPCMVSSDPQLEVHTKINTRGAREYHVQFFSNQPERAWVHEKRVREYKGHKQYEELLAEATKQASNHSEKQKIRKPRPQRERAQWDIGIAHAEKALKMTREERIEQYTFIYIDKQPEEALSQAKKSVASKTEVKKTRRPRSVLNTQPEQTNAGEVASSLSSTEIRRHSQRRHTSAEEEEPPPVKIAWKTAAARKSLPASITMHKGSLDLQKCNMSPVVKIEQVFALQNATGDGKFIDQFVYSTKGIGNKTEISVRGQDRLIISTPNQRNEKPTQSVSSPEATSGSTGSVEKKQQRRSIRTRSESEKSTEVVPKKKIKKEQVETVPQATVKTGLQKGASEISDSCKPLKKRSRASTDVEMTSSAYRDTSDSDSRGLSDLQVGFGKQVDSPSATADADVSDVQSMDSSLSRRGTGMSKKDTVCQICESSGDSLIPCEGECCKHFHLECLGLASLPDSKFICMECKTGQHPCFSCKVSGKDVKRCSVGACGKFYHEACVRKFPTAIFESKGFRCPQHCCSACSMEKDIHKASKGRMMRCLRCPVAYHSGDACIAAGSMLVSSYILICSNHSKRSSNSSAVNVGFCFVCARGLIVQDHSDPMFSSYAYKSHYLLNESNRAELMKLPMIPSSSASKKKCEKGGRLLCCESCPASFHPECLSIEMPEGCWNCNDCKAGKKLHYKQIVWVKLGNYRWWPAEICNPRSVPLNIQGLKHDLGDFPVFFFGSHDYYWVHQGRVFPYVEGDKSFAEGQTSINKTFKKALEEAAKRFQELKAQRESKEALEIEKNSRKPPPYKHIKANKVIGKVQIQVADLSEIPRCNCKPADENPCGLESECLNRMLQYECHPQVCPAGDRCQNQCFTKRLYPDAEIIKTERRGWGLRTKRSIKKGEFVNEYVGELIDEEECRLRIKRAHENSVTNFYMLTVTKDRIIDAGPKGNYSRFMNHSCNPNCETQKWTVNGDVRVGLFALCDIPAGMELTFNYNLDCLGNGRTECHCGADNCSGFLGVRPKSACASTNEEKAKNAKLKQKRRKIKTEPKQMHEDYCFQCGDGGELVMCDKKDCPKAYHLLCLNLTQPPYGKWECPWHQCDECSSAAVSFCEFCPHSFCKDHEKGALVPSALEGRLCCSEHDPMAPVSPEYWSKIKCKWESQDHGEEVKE
As to the kind of experiment: Induction of NSD3 degradation in human NCI-H1703 cells at 5 uM incubated for 72 hrs by Western blot analysis. Format: cell-based.
Conditions: not given
(In general: A western blot detects proteins with antibodies after separation by electrophoresis.)
`Cc1cc(CNCCCCCCC(=O)N[C@H](C(=O)N2C[C@H](O)C[C@H]2C(=O)N[C@@H](C)c2ccc(-c3scnc3C)cc2)C(C)(C)C)cc(C)c1-c1ncn(C)c1-c1ccnc2cc(F)ccc12`: the NSD3 degradation turned out to be 6.3%.
On to `Cc1cc(CNCCCCCCCCCCNc2cccc3c2C(=O)N(C2CCC(=O)NC2=O)C3=O)cc(C)c1-c1ncn(C)c1-c1ccnc2cc(F)ccc12` (stereo not drawn), for which the NSD3 degradation is 21%.
As to `Cc1cc(CNCCN2CCN(CCCC(=O)N[C@H](C(=O)N3C[C@H](O)C[C@H]3C(=O)N[C@@H](C)c3ccc(-c4scnc4C)cc3)C(C)(C)C)CC2)cc(C)c1-c1ncn(C)c1-c1ccnc2cc(F)ccc12`, the NSD3 degradation is 9.1%.
Regarding `Cc1cc(CNCCCN2CCN(CCC(=O)N[C@H](C(=O)N3C[C@H](O)C[C@H]3C(=O)N[C@@H](C)c3ccc(-c4scnc4C)cc3)C(C)(C)C)CC2)cc(C)c1-c1ncn(C)c1-c1ccnc2cc(F)ccc12`, the NSD3 degradation turned out to be 25.8%.
On the same count and under the same terms, for `Cc1cc(CNCCCCCCCCCC(=O)N[C@H](C(=O)N2C[C@H](O)C[C@H]2C(=O)N[C@@H](C)c2ccc(-c3scnc3C)cc2)C(C)(C)C)cc(C)c1-c1ncn(C)c1-c1ccnc2cc(F)ccc12` the value was 1.2%.
In the case of `Cc1cc(CNCCCCCCCCCNc2cccc3c2C(=O)N(C2CCC(=O)NC2=O)C3=O)cc(C)c1-c1ncn(C)c1-c1ccnc2cc(F)ccc12` (stereo not drawn), the NSD3 degradation came out at 1.7%.
In the case of `Cc1cc(CNCCCCCCCCCCCCCCC(=O)N[C@H](C(=O)N2C[C@H](O)C[C@H]2C(=O)N[C@@H](C)c2ccc(-c3scnc3C)cc2)C(C)(C)C)cc(C)c1-c1ncn(C)c1-c1ccnc2cc(F)ccc12`, the NSD3 degradation worked out at 33.1%.
Regarding `Cc1cc(CNCCOCCOCCOCC(=O)N[C@H](C(=O)N2C[C@H](O)C[C@H]2C(=O)N[C@@H](C)c2ccc(-c3scnc3C)cc2)C(C)(C)C)cc(C)c1-c1ncn(C)c1-c1ccnc2cc(F)ccc12`, the NSD3 degradation was 10.7%.
With `Cc1cc(CNCCCCCCN2CCN(CC(=O)N[C@H](C(=O)N3C[C@H](O)C[C@H]3C(=O)N[C@@H](C)c3ccc(-c4scnc4C)cc3)C(C)(C)C)CC2)cc(C)c1-c1ncn(C)c1-c1ccnc2cc(F)ccc12`, the NSD3 degradation worked out at 37.6%.
On to `Cc1cc(CNCCCN2CCN(CCCC(=O)N[C@H](C(=O)N3C[C@H](O)C[C@H]3C(=O)N[C@@H](C)c3ccc(-c4scnc4C)cc3)C(C)(C)C)CC2)cc(C)c1-c1ncn(C)c1-c1ccnc2cc(F)ccc12`, for which the NSD3 degradation came out at 13.8%.
In the case of `Cc1cc(CNCCCCCCCCCCCNc2cccc3c2C(=O)N(C2CCC(=O)NC2=O)C3=O)cc(C)c1-c1ncn(C)c1-c1ccnc2cc(F)ccc12` (stereo not drawn), the NSD3 degradation turned out to be 15.6%.
For the compound `Cc1cc(CNCCCCCCCC(=O)N[C@H](C(=O)N2C[C@H](O)C[C@H]2C(=O)N[C@@H](C)c2ccc(-c3scnc3C)cc2)C(C)(C)C)cc(C)c1-c1ncn(C)c1-c1ccnc2cc(F)ccc12`, the NSD3 degradation is -2.4%.
With `Cc1cc(CNCCCCCN2CCN(CC(=O)N[C@H](C(=O)N3C[C@H](O)C[C@H]3C(=O)N[C@@H](C)c3ccc(-c4scnc4C)cc3)C(C)(C)C)CC2)cc(C)c1-c1ncn(C)c1-c1ccnc2cc(F)ccc12`, the NSD3 degradation is 53.5%.
As to `Cc1cc(CNCCCCCC(=O)N[C@H](C(=O)N2C[C@H](O)C[C@H]2C(=O)N[C@@H](C)c2ccc(-c3scnc3C)cc2)C(C)(C)C)cc(C)c1-c1ncn(C)c1-c1ccnc2cc(F)ccc12`, the NSD3 degradation was determined as 1.6%.
With `Cc1cc(CNCCCCCCCCCCCCCC(=O)N[C@H](C(=O)N2C[C@H](O)C[C@H]2C(=O)N[C@@H](C)c2ccc(-c3scnc3C)cc2)C(C)(C)C)cc(C)c1-c1ncn(C)c1-c1ccnc2cc(F)ccc12`, the NSD3 degradation amounted to 45.2%.
`Cc1cc(CNCCCCCCCCCCCC(=O)N[C@H](C(=O)N2C[C@H](O)C[C@H]2C(=O)N[C@@H](C)c2ccc(-c3scnc3C)cc2)C(C)(C)C)cc(C)c1-c1ncn(C)c1-c1ccnc2cc(F)ccc12`: the NSD3 degradation was 1.5%.
Still for that read-out and setting: for `Cc1cc(CNCCCCC(=O)N[C@H](C(=O)N2C[C@H](O)C[C@H]2C(=O)N[C@@H](C)c2ccc(-c3scnc3C)cc2)C(C)(C)C)cc(C)c1-c1ncn(C)c1-c1ccnc2cc(F)ccc12` the value was -4.2%; for `Cc1cc(CNCCOCCOCCC(=O)N[C@H](C(=O)N2C[C@H](O)C[C@H]2C(=O)N[C@@H](C)c2ccc(-c3scnc3C)cc2)C(C)(C)C)cc(C)c1-c1ncn(C)c1-c1ccnc2cc(F)ccc12`, -7.2%.
`Cc1cc(CNCCCCCCCCC(=O)N[C@H](C(=O)N2C[C@H](O)C[C@H]2C(=O)N[C@@H](C)c2ccc(-c3scnc3C)cc2)C(C)(C)C)cc(C)c1-c1ncn(C)c1-c1ccnc2cc(F)ccc12`: the NSD3 degradation stood at 0.7%.
With `Cc1cc(CNCCOCCOCCOCCOCCC(=O)N[C@H](C(=O)N2C[C@H](O)C[C@H]2C(=O)N[C@@H](C)c2ccc(-c3scnc3C)cc2)C(C)(C)C)cc(C)c1-c1ncn(C)c1-c1ccnc2cc(F)ccc12`, the NSD3 degradation is 7.7%.
As to `Cc1cc(CNCCCCCCCCCCCCCCCC(=O)N[C@H](C(=O)N2C[C@H](O)C[C@H]2C(=O)N[C@@H](C)c2ccc(-c3scnc3C)cc2)C(C)(C)C)cc(C)c1-c1ncn(C)c1-c1ccnc2cc(F)ccc12`, the NSD3 degradation turned out to be 16.4%.
Consider `Cc1cc(CNCCCCCCCCCCCCNc2cccc3c2C(=O)N(C2CCC(=O)NC2=O)C3=O)cc(C)c1-c1ncn(C)c1-c1ccnc2cc(F)ccc12` (stereo not drawn), for which the NSD3 degradation came to 1.5%.
Still for that read-out and setting: for `Cc1cc(CNCCCCN2CCN(CC(=O)N[C@H](C(=O)N3C[C@H](O)C[C@H]3C(=O)N[C@@H](C)c3ccc(-c4scnc4C)cc3)C(C)(C)C)CC2)cc(C)c1-c1ncn(C)c1-c1ccnc2cc(F)ccc12` the value was 11.1%.
For the compound `Cc1cc(CNCCOCCOCCOCCC(=O)N[C@H](C(=O)N2C[C@H](O)C[C@H]2C(=O)N[C@@H](C)c2ccc(-c3scnc3C)cc2)C(C)(C)C)cc(C)c1-c1ncn(C)c1-c1ccnc2cc(F)ccc12`, the NSD3 degradation was 7.4%.
Same read-out and setting: for `Cc1cc(CNCCCCCCCCCCCCC(=O)N[C@H](C(=O)N2C[C@H](O)C[C@H]2C(=O)N[C@@H](C)c2ccc(-c3scnc3C)cc2)C(C)(C)C)cc(C)c1-c1ncn(C)c1-c1ccnc2cc(F)ccc12` the value was 38%.

The next assay concerns the target T1, Histone-lysine N-methyltransferase NSD3 (Homo sapiens). Description: Induction of NSD3 degradation in human NCI-H1703 cells at upto 9 uM incubated for 72 hrs by Western blot analysis. Type of assay: cell-based.
Conditions: not given
Turning to `Cc1cc(CN)cc(C)c1-c1ncn(C)c1-c1ccnc2cc(F)ccc12`, the outcome was inactive.

The subject of the next assay is NCI-H1703. Description: Antiproliferative activity against human NCI-H1703 cells at upto 10 uM incubated for 6 days by CCK-8 method. Format: functional, cell-based. Conditions: time 6.0 day. Background: Tetrazolium dyes change colour on reduction, which living cells bring about.
Regarding `Cc1cc(CN)cc(C)c1-c1ncn(C)c1-c1ccnc2cc(F)ccc12`, the result was inactive.

In the next assay the test system is A549. As to the kind of experiment: Antiproliferative activity against human A549 cells at upto 10 uM incubated for 3 days by CCK-8 method. Format: functional, cell-based. As to conditions: time 3.0 day.
With `Cc1cc(CN)cc(C)c1-c1ncn(C)c1-c1ccnc2cc(F)ccc12`, the outcome was inactive.
